Results on 27 molecules are retold here after US11976072B2, “Diacylglycerol kinase modulating compounds” (priority 2021, dated 2024).

pEC50, pIC50: −log10 of the molar value. Read-outs that look alike come from different tables or passages of the source.

The test system of experiment [1] is Jurkat NFκB-luciferase cells. Kind of experiment: Jurkat NFκB-Luciferase Assay. Format: cell-based. To be noted: Homo sapiens; for pEC50: Jurkat NFκB-luciferase cells activated with anti-CD3 antibody (OKT3), 2.5 hrs at 37° C., geometric mean, read-out: DGK NFKb Luciferase EC50; for EC50: Jurkat, read-out: DGK NFKb Luciferase EC50 (nM). In a few lines: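 Luminescence from One-Glo Ex, read 7 min post-addition, reports NFκB activation in Jurkat luciferase reporter cells. Cells, diluted to 1 million cells/ml in 10% FBS RPMI, were dispensed onto plates holding compound and washed, pre-bound antibody.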

A further experiment has as its target human DGKα (Homo sapiens, UniProt P23743). Put plainly: DGKα Biochemical Activity Assay (ADP-Glo).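 Note: luminescent detection of ADP produced as DGKα phosphorylates DAG to phosphatidic acid, IC50 from four-parameter nonlinear curve fit.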 To be noted: recombinant DGKα 1 nM, 100 μM ATP, 18:1 DAG/POPS/octylglucoside micelles, 1 hour at 25° C.; geometric mean; read-out: HTBS DGKa 1X ATP KM IC50.

human DGKα, sequence (P23743 whole entry): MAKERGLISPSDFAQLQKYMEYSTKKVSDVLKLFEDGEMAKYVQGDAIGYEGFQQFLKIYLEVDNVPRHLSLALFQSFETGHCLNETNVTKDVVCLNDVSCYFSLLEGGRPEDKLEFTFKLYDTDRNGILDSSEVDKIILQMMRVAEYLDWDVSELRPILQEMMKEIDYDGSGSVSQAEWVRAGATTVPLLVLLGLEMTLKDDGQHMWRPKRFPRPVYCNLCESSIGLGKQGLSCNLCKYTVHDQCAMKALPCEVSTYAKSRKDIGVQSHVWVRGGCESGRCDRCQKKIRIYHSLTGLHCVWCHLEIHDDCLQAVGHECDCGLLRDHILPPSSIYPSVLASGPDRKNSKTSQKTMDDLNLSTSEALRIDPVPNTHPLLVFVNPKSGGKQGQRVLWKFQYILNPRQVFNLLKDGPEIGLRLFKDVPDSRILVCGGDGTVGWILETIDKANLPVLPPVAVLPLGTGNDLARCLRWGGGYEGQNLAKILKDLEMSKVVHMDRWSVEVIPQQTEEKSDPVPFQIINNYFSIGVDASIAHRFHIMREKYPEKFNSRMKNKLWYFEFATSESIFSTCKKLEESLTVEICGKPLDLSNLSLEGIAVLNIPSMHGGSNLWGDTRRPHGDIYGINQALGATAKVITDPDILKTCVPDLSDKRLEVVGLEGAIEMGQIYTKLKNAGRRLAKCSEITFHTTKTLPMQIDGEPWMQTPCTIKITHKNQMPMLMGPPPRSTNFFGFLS

`Cc1nnc2nc(N3CCOCc4c3ccnc4C#CC3(C(F)F)CC3)c3c(F)cccc3n12` [Example 135, 6-((1-(difluoromethyl)cyclopropyl)ethynyl)-1-(6-fluoro-1-methyl-[1,2,4]triazolo[4,3-a]quinazolin-5-yl)-1,2,3,5-tetrahydropyrido[4,3-e][1,4]oxazepine]: the pEC50 in experiment [1] was 8.22. The pIC50 on human DGKα was 8.26.

As to `CC(C)(C#Cc1cccc2c1COCCN2c1nc2nncn2c2c(Cl)ccc(F)c12)C(F)F` [Example 41, 1-(9-chloro-6-fluoro-[1,2,4]triazolo[4,3-a]quinazolin-5-yl)-6-(4,4-difluoro-3,3-dimethyl-but-1-ynyl)-3,5-dihydro-2H-4,1-benzoxazepine], the pEC50 in experiment [1] was 8.86. Further, on human DGKα, the pIC50 was 7.96.

As for `CC(F)(F)C1(C#Cc2cccc3c2COCCN3c2nc3nncn3c3ccc(F)c(F)c23)CC1` [Example 201, 6-[2-[1-(1,1-Difluoroethyl)cyclopropyl]ethynyl]-1-(6,7-difluoro-[1,2,4]triazolo[4,3-a]quinazolin-5-yl)-3,5-dihydro-2H-4,1-benzoxazepine], the pEC50 in experiment [1] was 9.69. Also, the pIC50 at human DGKα was 8.17.

Consider `Fc1cc(Cl)c2c(c1)c(N1CCCc3c(C#CC4(C(F)(F)F)CC4)cccc31)nc1nncn12` [Example 38, 9-chloro-7-fluoro-5-[5-[2-[1-(trifluoromethyl)cyclopropyl]ethynyl]-3,4-dihydro-2H-quinolin-1-yl]-[1,2,4]triazolo[4,3-a]quinazoline], for which the pEC50 in experiment [1] is 8.40. For the same molecule, the negative-log IC50 (pIC50) on human DGKα was 6.90.

On to `Cc1nnc2nc(N3CCCc4c(C#Cc5cnn(C)c5)cccc43)c3cc(F)ccc3n12` [Example 236, 7-fluoro-1-methyl-5-[5-[2-(1-methylpyrazol-4-yl)ethynyl]-3,4-dihydro-2H-quinolin-1-yl]-[1,2,4]triazolo[4,3-a]quinazoline], for which, in experiment [1], the pEC50 is 8.60. Besides, the pIC50 at human DGKα was 8.44.

Regarding `Cc1nnc2nc(N3CCCc4c(C#CC(C)(C)NC(=O)OC(C)(C)C)cccc43)c3c(F)cccc3n12` [Example 150, Tert-Butyl (4-(1-(6-fluoro-1-methyl-[1,2,4]triazolo[4,3-a]quinazolin-5-yl)-1,2,3,4-tetrahydroquinolin-5-yl)-2-methylbut-3-yn-2-yl)carbamate], the pEC50 in experiment [1] is 8.61. On human DGKα, the pIC50 was 7.94.

For the molecule `Cc1nnc2nc(N3CCCCc4c(C#CC(C)(C)C#N)cncc43)c3cc(F)ccc3n12` [Example 4, 4-(1-(7-fluoro-1-methyl-[1,2,4]triazolo[4,3-a]quinazolin-5-yl)-2,3,4,5-tetrahydro-1H-pyrido[3,4-b]azepin-6-yl)-2,2-dimethylbut-3-ynenitrile], the pEC50 in experiment [1] is 8.16. At human DGKα, the pIC50 is 7.62.

As for `Cc1nnc2nc(N3CCOCc4c3ccnc4C#CC3(C(C)(F)F)CC3)c3cc(F)ccc3n12` [Example 133, 6-((1-(1,1-difluoroethyl)cyclopropyl)ethynyl)-1-(7-fluoro-1-methyl-[1,2,4]triazolo[4,3-a]quinazolin-5-yl)-1,2,3,5-tetrahydropyrido[4,3-e][1,4]oxazepine], in experiment [1], the pEC50 is 8.25. Further, the pIC50 at human DGKα is 7.82.

Turning to `Cc1nnc2nc(N3CCCOc4c(C#CC5(C(C)(F)F)CC5)cccc43)c3c(F)c(F)ccc3n12` [Example 115], the pEC50 in experiment [1] was 8.63. For the same molecule, on human DGKα, the pIC50 is 7.48.

Turning to `Cc1nnc2nc(N3CCOCc4c(C#CC(C)(C)NC(=O)c5cn(C)nc5C(F)F)cccc43)c3c(F)cccc3n12` [Example 139, 3-(difluoromethyl)-N-[3-[1-(6-fluoro-1-methyl-[1,2,4]triazolo[4,3-a]quinazolin-5-yl)-3,5-dihydro-2H-4,1-benzoxazepin-6-yl]-1,1-dimethyl-prop-2-ynyl]-1-methyl-pyrazole-4-carboxamide], the pEC50 in experiment [1] is 7.38. Further, the pIC50 at human DGKα was 7.14.

In the case of `Cc1nnc2nc(N3CCCc4c(C#CC5(O)CCCCC5)cccc43)c3c(F)cccc3n12` [Example 206, 1-((1-(6-fluoro-1-methyl-[1,2,4]triazolo[4,3-a]quinazolin-5-yl)-1,2,3,4-tetrahydroquinolin-5-yl)ethynyl)cyclohexan-1-ol], the concentration giving a half-maximal response (EC50) in experiment [1] is 5.07 nM. Besides, on human DGKα, the pIC50 was 7.87.

Consider `Cc1nnc2nc(N3CCOCc4c3ccnc4C#CC3(C(F)(F)F)CC3)c3c(F)cccc3n12` [Example 143, 1-(6-fluoro-1-methyl-[1,2,4]triazolo[4,3-a]quinazolin-5-yl)-6-((1-(trifluoromethyl)cyclopropyl)ethynyl)-1,2,3,5-tetrahydropyrido[4,3-e][1,4]oxazepine], for which, in experiment [1], the pEC50 is 8.44. Moreover, the negative-log IC50 (pIC50) at human DGKα was 8.41.

As to `Cc1nnc2nc(N(CC(F)F)c3cc(F)cc(C#CC(C)(C)C#N)c3)c3cc(F)ccc3n12` [Example 245, 4-[3-[2,2-difluoroethyl-(7-fluoro-1-methyl-[1,2,4]triazolo[4,3-a]quinazolin-5-yl)amino]-5-fluoro-phenyl]-2,2-dimethyl-but-3-ynenitrile], the pEC50 in experiment [1] is 8.17. In addition, on human DGKα, the pIC50 is 7.67.

In the case of `CC1(C#Cc2cc(N(CC(F)F)c3nc4nncn4c4ccc(F)c(F)c34)ccn2)CC1` [Example 94, N-(2,2-difluoroethyl)-6,7-difluoro-N-(2-((1-methylcyclopropyl)ethynyl)pyridin-4-yl)-[1,2,4]triazolo[4,3-a]quinazolin-5-amine], the pEC50 in experiment [1] was 8.63. For the same molecule, the pIC50 on human DGKα is 8.37.

`Cc1cc(F)cc2c(N(CC(F)F)c3cc(F)cc(C#CC(C)(C)O)c3)nc3nncn3c12` [Example 105]: the pEC50 in experiment [1] is 7.57. Besides, the pIC50 on human DGKα is 7.51.

Take `Cc1nnc2nc(N3CCOCc4c(C#CC5(C(C)(F)F)CC5)cccc43)c3c(F)c(F)ccc3n12` [Example 200, 6-[2-[1-(1,1-Difluoroethyl)cyclopropyl]ethynyl]-1-(6,7-difluoro-1-methyl-[1,2,4]triazolo[4,3-a]quinazolin-5-yl)-3,5-dihydro-2H-4,1-benzoxazepine]: the pEC50 in experiment [1] is 9.07. The pIC50 at human DGKα is 8.29.

For the molecule `COCCN(c1cc(F)cc(C#CC2(C(F)(F)F)CC2)c1)c1nc2nncn2c2cccc(F)c12` [Example 98, 6-fluoro-N-(3-fluoro-5-((1-(trifluoromethyl)cyclopropyl)ethynyl)phenyl)-N-(2-methoxyethyl)-[1,2,4]triazolo[4,3-a]quinazolin-5-amine], in experiment [1], the pEC50 is 7.73. Also, the negative-log IC50 (pIC50) on human DGKα was 7.07.

For `Cc1nnc2nc(N3CCCc4c(C#CC5(C(C)(F)F)CC5)cccc43)c3cc(F)ccc3n12` [Example 31, 5-(5-((1-(1,1-difluoroethyl)cyclopropyl)ethynyl)-3,4-dihydroquinolin-1(2H)-yl)-7-fluoro-1-methyl-[1,2,4]triazolo[4,3-a]quinazoline], the pEC50 in experiment [1] was 8.85. Also, the negative logarithm of the IC50 (pIC50) on human DGKα was 7.29.

For the molecule `Cc1nnc2nc(N3c4cccc(C#CC5(C(F)(F)F)CC5)c4CCC3C)c3c(F)cccc3n12` (stereo not drawn) [Example 58, 6-fluoro-1-methyl-5-(2-methyl-5-((1-(trifluoromethyl)cyclopropyl)ethynyl)-3,4-dihydroquinolin-1(2H)-yl)-[1,2,4]triazolo[4,3-a]quinazoline], the pEC50 in experiment [1] is 8.43. In addition, the pIC50 at human DGKα is 7.11.

With `CC1(C#Cc2cccc3c2COCCN3c2nc3nncn3c3c(F)ccc(F)c23)CC1` [Example 113], in experiment [1], the pEC50 was 9.05. Further, the pIC50 on human DGKα was 8.84.

In the case of `Cc1nnc2nc(N3CCCc4c(C#CC(C)(C)C#N)cccc43)c3cc(F)ccc3n12` [Example 244, 4-[1-(7-fluoro-1-methyl-[1,2,4]triazolo[4,3-a]quinazolin-5-yl)-3,4-dihydro-2H-quinolin-5-yl]-2,2-dimethyl-but-3-ynenitrile], the pEC50 in experiment [1] is 8.49. The pIC50 on human DGKα is 7.99.

Regarding `Cc1nnc2nc(N3CCOCc4c(C#CC(C)(C)NC(=O)c5cn(C)nc5C(F)(F)F)cccc43)c3c(F)cccc3n12` [Example 138, N-(4-(1-(6-fluoro-1-methyl-[1,2,4]triazolo[4,3-a]quinazolin-5-yl)-1,2,3,5-tetrahydrobenzo[e][1,4]oxazepin-6-yl)-2-methylbut-3-yn-2-yl)-1-methyl-3-(trifluoromethyl)-1H-pyrazole-4-carboxamide], the pEC50 in experiment [1] is 7.36. Moreover, the pIC50 at human DGKα was 7.54.

Take `Cc1nnc2nc(N3CCN(C)Cc4c(C#CC(C)(C)O)cccc43)c3cc(F)ccc3n12` [Example 170, 4-[1-(7-fluoro-1-methyl-[1,2,4]triazolo[4,3-a]quinazolin-5-yl)-4-methyl-3,5-dihydro-2H-1,4-benzodiazepin-6-yl]-2-methyl-but-3-yn-2-ol]: the EC50 in experiment [1] came to 358 nM. Besides, the pIC50 at human DGKα is 7.29.

For `Fc1cc(F)c2c(c1)c(N1CCCc3c(C#CC4(C(F)(F)F)CC4)cccc31)nc1nncn12` [Example 118], the pEC50 in experiment [1] was 8.24. Also, the pIC50 at human DGKα was 8.31.

Take `Cc1nnc2nc(N3CCCc4c(C#CC(C)(C)C#N)cncc43)c3c(F)c(F)ccc3n12` [Example 10, 4-(1-(6,7-difluoro-1-methyl-[1,2,4]triazolo[4,3-a]quinazolin-5-yl)-1,2,3,4-tetrahydro-1,7-naphthyridin-5-yl)-2,2-dimethylbut-3-ynenitrile]: the pEC50 in experiment [1] was 8.23. Also, the pIC50 at human DGKα is 7.77.

Consider `Cc1nnc2nc(N3CCOCc4c(C#CC(C)(C)C(F)(F)F)cccc43)c3cc(F)ccc3n12` [Example 210], for which the pEC50 in experiment [1] was 9.18. Moreover, the pIC50 on human DGKα was 8.23.

With `Cc1nnc2nc(N3CCCc4c(C#CC5(C(F)F)CC5)cccc43)c3c(Cl)cccc3n12` [Example 126, 6-chloro-5-(5-((1-(difluoromethyl)cyclopropyl)ethynyl)-3,4-dihydroquinolin-1(2H)-yl)-1-methyl-[1,2,4]triazolo[4,3-a]quinazoline], in experiment [1], the pEC50 was 8.93. Moreover, the pIC50 on human DGKα is 7.77.
